The structures appear in SMILES notation.

In the first experiment the target is T1, ASIC1a (Homo sapiens, UniProt P78348).
T1 sequence (P78348 1-528): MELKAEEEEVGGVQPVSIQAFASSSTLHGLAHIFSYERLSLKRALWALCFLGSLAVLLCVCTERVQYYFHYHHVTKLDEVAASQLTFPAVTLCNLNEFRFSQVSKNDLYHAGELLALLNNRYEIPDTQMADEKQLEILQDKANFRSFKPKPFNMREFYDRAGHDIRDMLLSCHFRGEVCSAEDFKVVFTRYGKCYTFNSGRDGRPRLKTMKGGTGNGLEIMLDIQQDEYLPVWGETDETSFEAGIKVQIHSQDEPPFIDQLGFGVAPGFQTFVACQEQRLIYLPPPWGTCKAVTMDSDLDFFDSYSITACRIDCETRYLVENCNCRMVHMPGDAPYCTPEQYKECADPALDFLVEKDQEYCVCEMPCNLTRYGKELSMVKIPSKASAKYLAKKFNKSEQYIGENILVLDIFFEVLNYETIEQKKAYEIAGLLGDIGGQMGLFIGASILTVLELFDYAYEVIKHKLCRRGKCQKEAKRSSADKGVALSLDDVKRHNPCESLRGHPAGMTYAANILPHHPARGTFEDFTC
Nature of the experiment: Calcium imaging of MES-induced calcium response (FlexStation, "Flex"). The format is cell-based. Further details: host or cells: HEK293. To be noted: 40 μM, ASIC1a expressing HEK293 cells. As for the experimental part: ASIC1a expressing HEK293 cells are grown in culture medium (DMEM with 10% FBS), in polystyrene culture flasks ([…]) at 37° C. in a humidified atmosphere of 5% CO2. Confluency of cells should be 80-90% on day of plating. Cells are rinsed with 10 ml of PBS and cells are re-suspended by addition of culture medium and trituration with a 25 ml pipette.
The cells are seeded at a density of approximately 1×10^6 cells/ml (100 μl/well) in black-walled, clear bottom, 96-well plates pre-treated with 10 mg/l poly-D-lysin (75 μl/well for ≧30 min). Plated cells are allowed to proliferate for 24 h before loading with dye.
Fluo-4/AM (1 mg, Molecular Probes) is dissolved in 912 μl DMSO. The Fluo-4/AM stock solution (1 mM) is diluted with culture medium to a final concentration of 2 μM (loading solution).
The culture medium is aspirated from the wells, and 50 μl of the Fluo-4/AM loading solution is added to each well. The cells are incubated at 37° C. for 30 min.
After the loading period, the loading solution is aspirated and the cells are washed twice with 100 μl modified Assay Buffer (145 mM NaCl, 5 mM KCl, 5 mM CaCl2, 1 mM MgCl2, 10 mM HEPES, pH 7.4) to remove extracellular dye. Following the second wash, 100 μl modified Assay Buffer is added to each well and the fluorescence is measured in FLIPR™ or FlexStation™ (Molecular Devices, USA), or any other suitable equipment known to the skilled in the art.
The MES-induced peak calcium response, in the presence of test substance, is expressed relatively to the MES response alone. Test substances that block the MES-induced calcium response are re-tested in triplicates. Confirmed hits are picked for further characterization by performing full dose-response curves to determine potency of each hit compound as represented by the IC50 values (i.e., the concentration of the test substance which inhibits 50% of the MES-induced calcium response).
Take `CCN(CC)Cc1cc(-c2cc(F)ccc2OC)cc2c1NC(=O)/C2=N/O` [Compound 213]: the “% inh. at 40 μM (Flex)” value was <25% inhibition at 40 μM (Flex).

Still in this experiment, the particulars now being: 40 μM, ASIC1a expressing HEK293 cells; read-out: % inh. at 40 μM (Flex).
As for `COc1ccc(F)cc1-c1ccc2c(c1)COC(=O)N2` [Compound 187, 6-(5-Fluoro-2-methoxy-phenyl)-1,4-dihydro-benzo[d][1,3]oxazin-2-one], the inhibition at 40 µM is 25 to 45%.

For `CCN(CC)Cc1cc(-c2cc(F)ccc2OC)cc2c1NC(=O)/C2=N/O` [Compound 183, 7-Diethylaminomethyl-5-(5-fluoro-2-methoxy-phenyl)-1H-indole-2,3-dione 3-oxime], the inhibition at 40 µM is less than 25%.

Consider `CCOC(=O)Nc1ccc(-c2cc(F)ccc2OC)cc1CN(CC)CC` [Compound 212], for which the inhibition at 40 µM is less than 25%.

Take `COc1ccc(F)cc1-c1ccc(N)c(CO)c1` [Compound 186, (4-Amino-5′-fluoro-2′-methoxy-biphenyl-3-yl)-methanol]: the inhibition at 40 µM was less than 25%.

`CCN(CC)Cc1cc(-c2cc(F)ccc2OC)ccc1NC(=O)N1CCOCC1` [Compound 214]: the inhibition at 40 µM is less than 25%.

On to `CCN(CC)Cc1cc(-c2cc(F)ccc2OC)ccc1NC(=O)N(C)C` [Compound 215], for which the inhibition at 40 µM was less than 25%.

`CCN1CCc2c(-c3cccc(C)c3C)cc3c(c2C1)NC(=O)/C3=N/O` [Compound 217]: the inhibition at 40 µM was more than 50%.

The experiment is the same for the next values; noted with them: ASIC1a expressing HEK293 cells.
Consider `CCN1CCc2c(-c3cc(Cl)ccc3OC)cc3c(c2C1)NC(=O)/C3=N/O` [Compound 219], for which the IC50 is less than 10 µM.

As for `CCOc1ccccc1-c1cc2c(c3c1CCN(CC)C3)NC(=O)/C2=N/O` [Compound 221], the IC50 is less than 10 µM.

Turning to `CCN1CCc2c(-c3ccccc3OC)cc3c(c2C1)NC(=O)/C3=N/O` [Compound 220], the IC50 was less than 10 µM.

Turning to `CCN1CCc2c(-c3cc(C)ccc3C)cc3c(c2C1)NC(=O)/C3=N/O` [Compound 218], the IC50 was less than 10 µM.

On to `CCN1CCc2c(-c3cc(C)cc(C)c3)cc3c(c2C1)NC(=O)/C3=N/O` [Compound 216], for which the IC50 is less than 10 µM.

(Values after US20080004272A1, “Compositions and methods for modulating gated ion channels” (PainCeptor Pharma Corporation, priority 2006, published 2008).)
